Data published in ChEMBL document CHEMBL3425423, “Hydroxy tricyclic 1,5-naphthyridinone oxabicyclooctane-linked novel bacterial topoisomerase inhibitors as broad-spectrum antibacterial agents-SAR of RHS moiety (Part-3)” (Bioorg Med Chem Lett, 2015).
Converted amounts (≈) assume the structure as drawn.

How the values were obtained:
Format in all cases: functional
Staphylococcus aureus [1] = assay: Antibacterial activity against Staphylococcus aureus Smith
Streptococcus pneumoniae = assay: Antibacterial activity against Streptococcus pneumoniae IID554; settings: Streptococcus pneumoniae, IID554; read-out: MIC
Enterococcus faecium = assay: Antibacterial activity against VanA-type vancomycin-resistant Enterococcus faecium A2373; settings: Enterococcus faecium, A2373; read-out: MIC
Escherichia coli = assay: Antibacterial activity against Escherichia coli ATCC 25922; settings: Escherichia coli, ATCC 25922; read-out: MIC
Pseudomonas aeruginosa = assay: Antibacterial activity against Pseudomonas aeruginosa PAO1; settings: Pseudomonas aeruginosa, PAO1; read-out: MIC
Enterococcus faecalis = assay: Antibacterial activity against Enterococcus faecalis ATCC 29212; settings: Enterococcus faecalis, ATCC 29212; read-out: MIC
Acinetobacter baumannii = assay: Antibacterial activity against Acinetobacter baumannii IID876; settings: Acinetobacter baumannii, IID876; read-out: MIC
Staphylococcus aureus [2] = assay: Ratio of MIC for quinolone-resistant Staphylococcus aureus MS5935 to MIC for quinolone-sensitive Staphylococcus aureus
Moraxella catarrhalis = assay: Antibacterial activity against Moraxella catarrhalis ATCC 25238; settings: Moraxella catarrhalis, ATCC 25238; read-out: MIC
Haemophilus influenzae = assay: Antibacterial activity against Haemophilus influenzae ATCC 49247; settings: Haemophilus influenzae, ATCC 49247; read-out: MIC
[3] = Staphylococcus aureus, Smith, read-out: MIC

Row | SMILES | MIC (Staphylococcus aureus [1]; [3]) [µg/mL] | MIC (Streptococcus pneumoniae) [µg/mL] | MIC (Enterococcus faecium) [µg/mL] | MIC (Escherichia coli) [µg/mL] | MIC (Pseudomonas aeruginosa) [µg/mL] | MIC (Enterococcus faecalis) [µg/mL] | MIC (Acinetobacter baumannii) [µg/mL] | MIC (Staphylococcus aureus [1]) [µg/mL] | Ratio (Staphylococcus aureus [2]) | MIC (Moraxella catarrhalis) [µg/mL] | MIC (Haemophilus influenzae) [µg/mL]
1 | O=C1CSc2ccc(CNC34CCC(C[C@]5(O)Cn6c(=O)ccc7ncc(F)c5c76)(CC3)OC4)nc2N1 | 0.25 (≈ 0.477 µM) | 0.5 (≈ 0.955 µM) | 8 (≈ 15.3 µM) | 4 (≈ 7.64 µM) | 16 (≈ 30.6 µM) | 2 (≈ 3.82 µM) | 2 (≈ 3.82 µM) | – | – | – | –
2 | O=C1COc2cnc(CNC34CCC(C[C@]5(O)Cn6c(=O)ccc7ncc(F)c5c76)(CC3)OC4)cc2N1 | 4 (≈ 7.88 µM) | 4 (≈ 7.88 µM) | 32 (≈ 63.1 µM) | 16 (≈ 31.5 µM) | 32 (≈ 63.1 µM) | 8 (≈ 15.8 µM) | 32 (≈ 63.1 µM) | – | – | – | –
3 | O=C1COc2ccc(CNC34CCC(C[C@]5(O)Cn6c(=O)ccc7ncc(F)c5c76)(CC3)OC4)cc2N1 | 1.5 (≈ 2.96 µM) | 1 (≈ 1.97 µM) | 16 (≈ 31.6 µM) | 6 (≈ 11.8 µM) | 16 (≈ 31.6 µM) | 4 (≈ 7.9 µM) | 8 (≈ 15.8 µM) | – | – | – | –
4 | O=C1COc2ccc(C(=O)NC34CCC(C[C@]5(O)Cn6c(=O)ccc7ncc(F)c5c76)(CC3)OC4)nc2N1 | 1 (≈ 1.92 µM) | 4 (≈ 7.67 µM) | 16 (≈ 30.7 µM) | 32 (≈ 61.4 µM) | 32 (≈ 61.4 µM) | 8 (≈ 15.3 µM) | 16 (≈ 30.7 µM) | 0.25 (≈ 0.479 µM) | <4 | – | –
5 | O=c1ccc2ncc(F)c3c2n1C[C@@]3(O)CC12CCC(NCc3ncc4c(c3Cl)OCCO4)(CC1)CO2 | 2 (≈ 3.78 µM) | 1 (≈ 1.89 µM) | 32 (≈ 60.5 µM) | 32 (≈ 60.5 µM) | 32 (≈ 60.5 µM) | 8 (≈ 15.1 µM) | 32 (≈ 60.5 µM) | – | – | 32 (≈ 60.5 µM) | –
6 | O=c1ccc2ncc(F)c3c2n1C[C@@]3(O)CC12CCC(NCc3ccc4c(n3)OCCO4)(CC1)CO2 | 2 (≈ 4.04 µM) | 2 (≈ 4.04 µM) | 32 (≈ 64.7 µM) | 32 (≈ 64.7 µM) | 32 (≈ 64.7 µM) | 8 (≈ 16.2 µM) | 32 (≈ 64.7 µM) | – | – | 32 (≈ 64.7 µM) | –
7 | O=c1ccc2ncc(F)c3c2n1C[C@@]3(O)CC12CCC(NCc3ccc4c(c3)OCCO4)(CC1)CO2 | 0.12 (≈ 0.243 µM) | 0.25 (≈ 0.507 µM) | 4 (≈ 8.1 µM) | 16 (≈ 32.4 µM) | 32 (≈ 64.8 µM) | 2 (≈ 4.05 µM) | 4 (≈ 8.1 µM) | – | – | 0.5 (≈ 1.01 µM) | –
8 | O=c1ccc2ncc(F)c3c2n1C[C@@]3(O)CC12CCC(NCc3cc4c(cc3F)OCCO4)(CC1)CO2 | 0.25 (≈ 0.489 µM) | 0.5 (≈ 0.977 µM) | 8 (≈ 15.6 µM) | 32 (≈ 62.6 µM) | 32 (≈ 62.6 µM) | 2 (≈ 3.91 µM) | 8 (≈ 15.6 µM) | – | – | 8 (≈ 15.6 µM) | –
9 | O=c1ccc2ncc(F)c3c2n1C[C@@]3(O)CC12CCC(NCc3c(Cl)cc4c(c3Cl)OCCO4)(CC1)CO2 | 4 (≈ 7.11 µM) | 4 (≈ 7.11 µM) | 32 (≈ 56.9 µM) | 32 (≈ 56.9 µM) | 32 (≈ 56.9 µM) | 16 (≈ 28.4 µM) | 32 (≈ 56.9 µM) | – | – | 32 (≈ 56.9 µM) | 32 (≈ 56.9 µM)
10 | O=c1ccc2ncc(F)c3c2n1C[C@@]3(O)CC12CCC(NCc3cc4c(c(Cl)c3Cl)OCCO4)(CC1)CO2 | 1 (≈ 1.78 µM) | 4 (≈ 7.11 µM) | 32 (≈ 56.9 µM) | 32 (≈ 56.9 µM) | 32 (≈ 56.9 µM) | 8 (≈ 14.2 µM) | 32 (≈ 56.9 µM) | – | – | 0.5 (≈ 0.889 µM) | 32 (≈ 56.9 µM)
11 | O=c1ccc2ncc(F)c3c2n1C[C@@]3(O)CC12CCC(NCc3cc(Cl)c4c(c3Cl)OCCO4)(CC1)CO2 | 0.5 (≈ 0.889 µM) | 0.25 (≈ 0.445 µM) | 16 (≈ 28.4 µM) | 32 (≈ 56.9 µM) | 32 (≈ 56.9 µM) | 4 (≈ 7.11 µM) | 32 (≈ 56.9 µM) | – | – | 2 (≈ 3.56 µM) | –
12 | O=c1ccc2ncc(F)c3c2n1C[C@@]3(O)CC12CCC(NCc3ccc4c(n3)NCCO4)(CC1)CO2 | 2 (≈ 4.05 µM) | 1 (≈ 2.03 µM) | 16 (≈ 32.4 µM) | 32 (≈ 64.8 µM) | 32 (≈ 64.8 µM) | 8 (≈ 16.2 µM) | 8 (≈ 16.2 µM) | – | – | 4 (≈ 8.1 µM) | –
13 | CN1CCOc2nc(CNC34CCC(C[C@]5(O)Cn6c(=O)ccc7ncc(F)c5c76)(CC3)OC4)ccc21 | 2 (≈ 3.94 µM) | 4 (≈ 7.88 µM) | 16 (≈ 31.5 µM) | 16 (≈ 31.5 µM) | 16 (≈ 31.5 µM) | 16 (≈ 31.5 µM) | 16 (≈ 31.5 µM) | – | <4 | – | –
14 | CN1CCN(C)c2nc(CNC34CCC(C[C@]5(O)Cn6c(=O)ccc7ncc(F)c5c76)(CC3)OC4)ccc21 | 8 (≈ 15.4 µM) | 32 (≈ 61.5 µM) | 32 (≈ 61.5 µM) | 32 (≈ 61.5 µM) | 32 (≈ 61.5 µM) | 32 (≈ 61.5 µM) | 32 (≈ 61.5 µM) | – | – | 32 (≈ 61.5 µM) | 32 (≈ 61.5 µM)
15 | O=c1ccc2ncc(F)c3c2n1C[C@@]3(O)CC12CCC(NCc3ccc4c(c3)OCO4)(CC1)CO2 | 0.5 (≈ 1.04 µM) | 0.5 (≈ 1.04 µM) | 16 (≈ 33.4 µM) | 32 (≈ 66.7 µM) | 32 (≈ 66.7 µM) | 4 (≈ 8.34 µM) | 4 (≈ 8.34 µM) | – | – | 4 (≈ 8.34 µM) | –
16 | O=c1ccc2ncc(F)c3c2n1C[C@@]3(O)CC12CCC(NCc3ccc4c(c3)OC(F)(F)O4)(CC1)CO2 | 0.25 (≈ 0.485 µM) | 1 (≈ 1.94 µM) | 32 (≈ 62.1 µM) | 32 (≈ 62.1 µM) | 32 (≈ 62.1 µM) | 8 (≈ 15.5 µM) | 32 (≈ 62.1 µM) | – | – | 4 (≈ 7.76 µM) | –
